One assay deals with SZ95 sebocytes. Nature of the assay: Radiometric measurement of de novo lipogenesis in cultured human sebocytes. Type of assay: cell-based. To be noted: Geomean IC50, n>2 unless * then n=1, 14C acetate incorporation into lipids (DNL). The method, then:
SZ95 sebocytes were grown in Human Sebocyte Growth Medium (HSGM) containing Sebomed® basal medium (Sigma-Aldrich, F8205) supplemented with 10% heat-inactivated fetal bovine serum (Gibco, 10100-147), 1% penicillin/streptomycin (Gibco, 15070-063), 1 mM calcium chloride (Fisher, BP9742-10X5) and 5 ng/mL recombinant human epidermal growth factor (Gibco, PHG0311). At 90% confluence, cells were washed with PBS and then detached with 0.05% Trypsin-EDTA (Gibco, 25300054). Prior to starting the assay, cells were centrifuged and resuspended in HSGM containing 5% charcoal-stripped serum (Life Technologies, 12676-029) instead of 10% heat-inactivated fetal bovine serum. Cells were added to 24-well plates at a density of 0.25×10^6 cells/well and incubated overnight at 37° C. to allow the cells to adhere to the culture plate. Cells were then treated with a dose response of compound (30, 1, 0.03, 0.006, 0.0009, 0.0002, and 0.00003 μM) with each concentration tested in duplicate. Briefly, compounds were dissolved in DMSO stocks and diluted 1:1000 into HSGM with charcoal-stripped media. The vehicle control wells were treated with 0.1% DMSO. After a 1-hour preincubation with compound or vehicle at 37° C., 0.25 μCi ^14C sodium acetate (American Radiolabeled Chemicals: ARC, 0173A) was added to each well. Plates were incubated for an additional two hours at 37° C. At the end of the incubation period, cells were removed from incubator, placed on ice, and then washed twice with ice-cold PBS to remove free ^14C-sodium acetate. Plates were sealed and stored at −20° C. until analysis. To induce lysis, 125 μL of mammalian protein extraction reagent (MPER; Fisher, 78501) was added to each well. Plates were shaken for 1 hour at room temperature and lysates transferred to individual 2 mL polypropylene tubes. Wells were then washed with 175 μL PBS, which was added to lysates. A chloroform:methanol solution (1:1 v/v, 450 μL) was added to each tube. All tubes were vortexed for 10 seconds and centrifuged at 14,000×g for 5 minutes at room temperature to separate the aqueous and organic phases. A 25 μL aliquot was removed from the bottom organic layer of each sample and added to 6 mL Optiphase Supermix scintillation fluid (PerkinElmer, 1200-439). Counts of ^14C were assessed by scintillation counting. DNL (counts of ^14C incorporated into lipids) was expressed as a percentage for compound treated cells relative to the vehicle control. IC50 values were determined using a non-linear regression (four parameter with variable slope) in GraphPad Prism.

In assay [1] the target is recombinant human ACC1 (rhACC1) (Homo sapiens (Human), UniProt Q13085). As to the kind of experiment: Transcreener ADP detection FP assay, direct inhibition of rhACC1. It is filed as biochemical. To be noted: Geomean IC50, n ≥ 2 unless * then n = 1; 50 μM ATP, 30 μM acetyl-CoA. The method, then: The direct inhibition of ACC1 for the compounds of the present invention was determined using preparations of recombinant human ACC1 (rhACC1) (SEQ ID NO. 1)
Two liters of SF9 cells, infected with recombinant baculovirus containing full length human ACC1 cDNA, were suspended in ice-cold lysis buffer (25 mM Tris, pH 7.5; 150 mM NaCl; 10% glycerol; 5 mM imidazole (EMD Bioscience; Gibbstown, NJ); 2 mM TCEP (BioVectra; Charlottetown, Canada); Benzonase nuclease (10000 U/100 g cell paste; Novagen; Madison, WI); EDTA-free protease inhibitor cocktail (1 tab/50 ml; Roche Diagnostics; Mannheim, Germany). Cells were lysed by 3 cycles of freeze-thaw and centrifuged at 40,000×g for 40 minutes (4° C.). Supernatant was directly loaded onto a HisTrap FF crude column (GE Healthcare; Piscataway, NJ) and eluted with an imidazole gradient up to 0.5 M over 20 column volumes (CV). ACC1-containing fractions were pooled and diluted 1:5 with 25 mM Tris, pH 7.5, 2 mM TCEP, 10% glycerol and direct loaded onto a CaptoQ (GE Healthcare) column and eluted with an NaCl gradient up to 1 M over 20 CV's. Phosphate groups were removed from purified ACC1 by incubation with lambda phosphatase (100 U/10 μM target protein; New England Biolabs; Beverly, MA) for 14 hours at 4° C.; okadaic acid was added (1 μM final concentration; Roche Diagnostics) to inhibit the phosphatase. Purified ACC1 was exchanged into 25 mM Tris, pH 7.5, 2 mM TCEP, 10% glycerol, 0.5 M NaCl by 6 hour dialysis at 4° C. Aliquots were prepared and frozen at −80° C.
Measurement of rhACC1 Inhibition rhACC1 was assayed in a Corning #3820 (Corning, Tewksbury, MA) 384-well plate using the Transcreener ADP detection FP assay kit (Bellbrook Labs, Madison, Wisconsin) using the manufacturer's recommended conditions for a 50 μM ATP reaction. The final conditions for the assay were 50 mM HEPES, pH 7.2, 10 mM MgCl2, 7.5 mM tripotassium citrate, 2 mM DTT, 0.1 mg/mL BSA, 30 μM acetyl-CoA, 50 μM ATP, and 10 mM KHCO3. Typically, a […] was run for 60 min at room temp, and 10 μl of Transcreener stop and detect buffer was added and the combination incubated at room temp for an overnight (18 hours). The data was acquired on an Envision Fluorescence reader (PerkinElmer) using a 620 excitation Cy5 FP general dual mirror, 620 excitation Cy5 FP filter, 688 emission (S) and a 688 (P) emission filter.

In general, IC50 refers to the midpoint of a concentration-inhibition curve. In the case of `COc1cc(C(=O)N2CCC3(CC2)CC(=O)c2nc(C(C)(C)C)sc2C3)cc2c(C)nn(C)c12` [Example 13, 2-(tert-butyl)-1′-(7-methoxy-1,3-dimethyl-1H-indazole-5-carbonyl)-5H-spiro[benzo[d]thiazole-6,4′-piperidin]-4(7H)-one], the concentration for half-maximal inhibition (IC50) in the assay with SZ95 sebocytes is 13.5 nM; in assay [1], 5.3 nM.

Turning to `CNc1cnc2c(C)cc(C(=O)N3CCC4(CC3)CC(=O)c3nc(C(C)(C)C)sc3C4)cc2c1` [Example 15, 2-(tert-butyl)-1′-(8-methyl-3-(methylamino)quinoline-6-carbonyl)-5H-spiro[benzo[d]thiazole-6,4′-piperidin]-4(7H)-one], the IC50 worked out at 12.9 nM in the assay on SZ95 sebocytes and 3.4 nM in assay [1].

As for `Cc1cc(C(=O)N2CCC3(CC2)CC(=O)c2nc(C(C)(C)C)sc2C3)cc2ccccc12` [Example 16, 2-(tert-butyl)-1′-(4-methyl-2-naphthoyl)-5H-spiro[benzo[d]thiazole-6,4′-piperidin]-4(7H)-one], the IC50 in the assay on SZ95 sebocytes was 18.1 nM; in assay [1] it was 7.3 nM.

On to `Cc1cc(C(=O)N2CCC3(CC2)CC(=O)c2nc(C(C)(C)C)sc2C3)cc2cc[nH]c12` [Example 17, 2-(tert-butyl)-1′-(7-methyl-1H-indole-5-carbonyl)-5H-spiro[benzo[d]thiazole-6,4′-piperidin]-4(7H)-one], for which the half-maximal inhibitory concentration (IC50) in the assay on SZ95 sebocytes stood at 15.6 nM; in assay [1] it was 9.6 nM.

As to `COc1cnc2c(C)cc(C(=O)N3CCC4(CC3)CC(=O)c3nc(C(C)(C)C)sc3C4)cc2c1` [Example 19, 2-(tert-butyl)-1′-(3-methoxy-8-methylquinoline-6-carbonyl)-5H-spiro[benzo[d]thiazole-6,4′-piperidin]-4(7H)-one], the IC50 in the assay on SZ95 sebocytes came out at 21.1 nM; in assay [1] it was 9.9 nM.

Regarding `COc1cc(C(=O)N2CCC3(CC2)CC(=O)c2nc(C(C)(C)C)sc2C3)c2[nH]ncc2c1C` [Example 33, 2-(tert-butyl)-1′-(5-methoxy-4-methyl-1H-indazole-7-carbonyl)-5H-spiro[benzo[d]thiazole-6,4′-piperidin]-4(7H)-one], the concentration for half-maximal inhibition (IC50) in the assay on SZ95 sebocytes came to 38.1 nM; in assay [1], 5.1 nM.

As to `CNc1ccc2c(C)cc(C(=O)N3CCC4(CC3)CC(=O)c3nc(C(C)(C)C)sc3C4)cc2n1` [Example 38, 2-(tert-butyl)-1′-(5-methyl-2-(methylamino)quinoline-7-carbonyl)-5H-spiro[benzo[d]thiazole-6,4′-piperidin]-4(7H)-one], the values for the IC50 (in the assay on SZ95 sebocytes; in assay [1]) were 14.2 nM and 4.9 nM, respectively.

Regarding `Cc1cc(C(=O)N2CCC3(CC2)CC(=O)c2nc(C(C)(C)C)sc2C3)cc2c(Cl)c[nH]c12` [Example 42, 2-(tert-butyl)-1′-(3-chloro-7-methyl-1H-indole-5-carbonyl)-5H-spiro[benzo[d]thiazole-6,4′-piperidin]-4(7H)-one], the IC50 with SZ95 sebocytes amounted to 15.9 nM; in assay [1], 3.1 nM.

Turning to `COc1cc(C(=O)N2CCC3(CC2)CC(=O)c2nc(C(C)(C)C)sc2C3)cc2[nH]ccc12` [Example 61], the values for the half-maximal inhibitory concentration (IC50) (in the assay on SZ95 sebocytes; in assay [1]) were 30.8 nM and 4.4 nM, respectively.

On to `Cn1ccc2c(Cl)cc(C(=O)N3CCC4(CC3)CC(=O)c3nc(C(C)(C)C)sc3C4)cc21` [Example 79], for which the IC50 with SZ95 sebocytes was 16.7 nM; in assay [1], 4.1 nM.

`COc1cc(C(=O)N2CCC3(CC2)CC(=O)c2nc(C(C)(C)C)sc2C3)cc(OC)c1C` [Example 81]: the half-inhibitory concentration (IC50) stood at 47.2 nM in the assay on SZ95 sebocytes and 11.7 nM in assay [1].

For `COc1cc(C(=O)N2CCC3(CC2)CC(=O)c2nc(C(C)(C)C)sc2C3)cc2c1ccn2C` [Example 83], in assay [1], the concentration for half-maximal inhibition (IC50) came out at 11.1 nM.

Take `Cc1c(O)c(C(=O)N2CCC3(CC2)CC(=O)c2nc(C(C)(C)C)sc2C3)cc2ccccc12` [Example 85]: the 50% inhibitory concentration (IC50) in assay [1] was found to be 7 nM.

Regarding `COc1cc(C(=O)N2CCC3(CC2)CC(=O)c2nc(C(C)(C)C)sc2C3)nc2c(OC)cccc12` [Example 86], the half-maximal inhibitory concentration (IC50) in assay [1] was 14.3 nM.

In the case of `Cc1cn(C)c2c(C)cc(C(=O)N3CCC4(CC3)CC(=O)c3nc(C(C)(C)C)sc3C4)cc12` [Example 87], in assay [1], the IC50 was found to be 6.2 nM.

Regarding `CC(C)(C)c1nc2c(s1)CC1(CCN(C(=O)c3ccc(Cl)c4[nH]ccc34)CC1)CC2=O` [Example 88], the 50% inhibitory concentration (IC50) in assay [1] amounted to 15 nM.

On to `CC(C)(C)c1nc2c(s1)CC1(CCN(C(=O)c3ccc(Cl)c4cc[nH]c34)CC1)CC2=O` [Example 89], for which, in assay [1], the IC50 was 6.3 nM.

Take `CC(C)(C)c1nc2c(s1)CC1(CCN(C(=O)c3cc(Cl)cc4cc[nH]c34)CC1)CC2=O` [Example 90]: in assay [1], the concentration for half-maximal inhibition (IC50) stood at 9.6 nM.

As to `Cc1cccc2ccc(C(=O)N3CCC4(CC3)CC(=O)c3nc(C(C)(C)C)sc3C4)cc12` [Example 91], the half-inhibitory concentration (IC50) in assay [1] amounted to 14 nM.

As to `Cc1c[nH]c2c(C)cc(C(=O)N3CCC4(CC3)CC(=O)c3nc(C(C)(C)C)sc3C4)cc12` [Example 92], in assay [1], the IC50 came out at 2.4 nM.

Consider `Cc1cc(C(=O)N2CCC3(CC2)CC(=O)c2nc(C(C)(C)C)sc2C3)cc2c1NCCC2` [Example 93], for which the IC50 in assay [1] stood at 19.5 nM.

For `COc1cc(C(=O)N2CCC3(CC2)CC(=O)c2nc(C(C)(C)C)sc2C3)cc2c(C)ccnc12` [Example 95], in assay [1], the 50% inhibitory concentration (IC50) is 46.5 nM.

Turning to `Cc1ccnc2c(C)cc(C(=O)N3CCC4(CC3)CC(=O)c3nc(C(C)(C)C)sc3C4)cc12` [Example 96], the IC50 in assay [1] turned out to be 26.1 nM.

Take `COc1cc(C(=O)N2CCC3(CC2)CC(=O)c2nc(C(C)(C)C)sc2C3)c2[nH]nc(C)c2c1` [Example 98]: the IC50 in assay [1] came to 8.6 nM.

As to `COc1cc(C(=O)N2CCC3(CC2)CC(=O)c2nc(C(C)(C)C)sc2C3)cc2c(OC)nccc12` [Example 100], the 50% inhibitory concentration (IC50) in assay [1] worked out at 3.1 nM.

On to `COc1cnc2c(OC)cc(C(=O)N3CCC4(CC3)CC(=O)c3nc(C(C)(C)C)sc3C4)cc2c1` [Example 101], for which the IC50 in assay [1] turned out to be 10.1 nM.

`COc1cc(C(=O)N2CCC3(CC2)CC(=O)c2nc(C(C)(C)C)sc2C3)cc2c1c(C)nn2C` [Example 103]: the concentration for half-maximal inhibition (IC50) in assay [1] came to 5.4 nM.

Take `COc1cc(C(=O)N2CCC3(CC2)CC(=O)c2nc(C(C)(C)C)sc2C3)cc2cc(C3CC3)cnc12` [Example 104]: the IC50 in assay [1] was 6.7 nM.

`CCc1cnc2c(OC)cc(C(=O)N3CCC4(CC3)CC(=O)c3nc(C(C)(C)C)sc3C4)cc2c1` [Example 105]: the IC50 in assay [1] was determined as 33.6 nM.

Consider `COc1cc(C(=O)N2CCC3(CC2)CC(=O)c2nc(C(C)(C)C)sc2C3)cc2cc[nH]c12` [Example 106], for which the IC50 in assay [1] worked out at 12.9 nM.

As for `CCc1n[nH]c2c(OC)cc(C(=O)N3CCC4(CC3)CC(=O)c3nc(C(C)(C)C)sc3C4)cc12` [Example 107], the IC50 in assay [1] stood at 12.3 nM.

Take `CCc1nn(C)c2c(OC)cc(C(=O)N3CCC4(CC3)CC(=O)c3nc(C(C)(C)C)sc3C4)cc12` [Example 108]: the 50% inhibitory concentration (IC50) in assay [1] was 5.6 nM.

For the origin of these results see patent publication US20240109915A1, “NOVEL ACC INHIBITORS” (Pfizer Inc., priority 2022, published 2024).
